Source: ChEMBL document CHEMBL1159219, “Flavonoids as DNA topoisomerase antagonists and poisons: structure-activity relationships” (J Nat Prod, 1995)
Values after ≈ are worked out from the molar mass of the structure shown. Active and inactive are the calls of the source. No cut-off for these calls is given here.

What was measured:
[1] = biological target: T1, DNA topoisomerase 2-alpha (Homo sapiens, UniProt P11388); assay: Enhancement of human DNA topoisomerase 2-mediated Escherichia coli pUC8 DNA cleavage after 30 mins by agarose gel electrophoresis; design: concentration or dose not given beside the values
T1 sequence (P11388 whole entry, the tested form may be a part): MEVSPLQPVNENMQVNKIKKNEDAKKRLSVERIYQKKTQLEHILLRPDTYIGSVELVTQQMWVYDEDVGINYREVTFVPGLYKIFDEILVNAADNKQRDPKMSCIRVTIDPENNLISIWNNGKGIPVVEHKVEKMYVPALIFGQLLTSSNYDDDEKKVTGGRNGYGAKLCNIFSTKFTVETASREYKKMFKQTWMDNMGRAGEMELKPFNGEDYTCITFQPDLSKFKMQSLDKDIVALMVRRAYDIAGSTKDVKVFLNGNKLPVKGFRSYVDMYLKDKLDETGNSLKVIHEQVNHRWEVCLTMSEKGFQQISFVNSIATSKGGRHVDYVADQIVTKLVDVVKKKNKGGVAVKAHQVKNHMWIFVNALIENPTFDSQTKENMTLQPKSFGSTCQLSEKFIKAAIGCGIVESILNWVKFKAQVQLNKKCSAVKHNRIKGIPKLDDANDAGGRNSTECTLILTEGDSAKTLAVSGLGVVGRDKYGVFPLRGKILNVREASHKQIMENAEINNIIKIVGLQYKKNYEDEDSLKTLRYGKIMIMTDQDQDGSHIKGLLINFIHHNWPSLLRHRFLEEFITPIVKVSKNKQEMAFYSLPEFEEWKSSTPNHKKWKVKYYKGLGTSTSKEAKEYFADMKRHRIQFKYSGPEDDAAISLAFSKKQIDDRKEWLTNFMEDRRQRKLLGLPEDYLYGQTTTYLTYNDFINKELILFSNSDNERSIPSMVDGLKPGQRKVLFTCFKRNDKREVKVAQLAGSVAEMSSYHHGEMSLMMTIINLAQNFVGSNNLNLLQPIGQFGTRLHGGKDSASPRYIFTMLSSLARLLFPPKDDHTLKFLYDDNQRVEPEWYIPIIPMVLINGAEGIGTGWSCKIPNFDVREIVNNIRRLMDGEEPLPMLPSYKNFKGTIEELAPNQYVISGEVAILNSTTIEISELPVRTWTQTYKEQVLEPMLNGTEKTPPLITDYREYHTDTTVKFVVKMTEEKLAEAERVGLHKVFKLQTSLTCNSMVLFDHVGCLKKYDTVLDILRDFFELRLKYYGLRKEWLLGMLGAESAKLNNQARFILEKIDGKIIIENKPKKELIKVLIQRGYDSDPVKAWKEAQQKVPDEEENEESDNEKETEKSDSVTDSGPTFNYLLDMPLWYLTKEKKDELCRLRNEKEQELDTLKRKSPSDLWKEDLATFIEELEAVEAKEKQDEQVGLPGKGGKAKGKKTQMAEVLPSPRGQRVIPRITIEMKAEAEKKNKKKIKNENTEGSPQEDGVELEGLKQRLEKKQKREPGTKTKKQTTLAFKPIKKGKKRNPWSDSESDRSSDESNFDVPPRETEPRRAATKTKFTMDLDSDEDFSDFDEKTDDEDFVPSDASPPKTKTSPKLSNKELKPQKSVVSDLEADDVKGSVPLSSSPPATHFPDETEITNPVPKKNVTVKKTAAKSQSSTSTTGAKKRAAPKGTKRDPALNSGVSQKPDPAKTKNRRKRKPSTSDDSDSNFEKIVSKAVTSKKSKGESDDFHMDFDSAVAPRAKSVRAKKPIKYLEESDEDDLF

[2] = organism: Bos taurus; assay: Inhibition of calf thymus DNA topoisomerase 1 catalytic domain-mediated supercoiled Escherichia coli pUC8 DNA relaxation up to 100 uM after 30 mins by agarose gel electrophoresis
[3] = biological target: T1, DNA topoisomerase 2-alpha; assay: Inhibition of human DNA topoisomerase 2 catalytic domain-mediated knotted bacteriophage P4Virl dell0 DNA unknotting up to 100 uM by agarose gel electrophoresis
[4] = biological target: T1, DNA topoisomerase 2-alpha; assay: Enhancement of human DNA topoisomerase 2-mediated Escherichia coli pUC8 DNA cleavage assessed as production of linear DNA at 100 ug/ml after 30 mins by agarose gel electrophoresis relative to total DNA
[5] = system: Escherichia coli; assay: Binding affinity to Escherichia coli pUC8 DNA assessed as production of linear DNA at 100 ug/ml after 30 mins by agarose gel electrophoresis
[6] = biological target: T1, DNA topoisomerase 2-alpha; assay: Inhibition of human DNA topoisomerase 2 catalytic domain-mediated knotted bacteriophage P4Virl dell0 DNA unknotting by agarose gel electrophoresis
[7] = biological target: T1, DNA topoisomerase 2-alpha; assay: Inhibition of human DNA topoisomerase 2 catalytic domain-mediated knotted bacteriophage P4Virl dell0 DNA unknotting at 100 uM by agarose gel electrophoresis
[8] = biological target: T1, DNA topoisomerase 2-alpha; assay: Enhancement of human DNA topoisomerase 2-mediated Escherichia coli pUC8 DNA cleavage assessed as production of linear DNA at 100 ug/ml after 30 mins by agarose gel electrophoresis relative to control
[9] = organism: Bos taurus; assay: Inhibition of calf thymus DNA topoisomerase 1 catalytic domain-mediated supercoiled Escherichia coli pUC8 DNA relaxation at 100 uM after 30 mins by agarose gel electrophoresis
[10] = Inhibition of calf thymus DNA topoisomerase 1 catalytic domain-mediated supercoiled Escherichia coli pUC8 DNA relaxation after 30 mins by agarose gel electrophoresis; design: species or system Bos taurus
[11] = biological target: T1, DNA topoisomerase 2-alpha; assay: Enhancement of human DNA topoisomerase 2-mediated Escherichia coli pUC8 DNA cleavage assessed as production of linear DNA at 30 ug/ml after 30 mins by agarose gel electrophoresis
[12] = biological target: T1, DNA topoisomerase 2-alpha; assay: Enhancement of human DNA topoisomerase 2-mediated Escherichia coli pUC8 DNA cleavage assessed as production of linear DNA at 100 ug/ml after 30 mins by agarose gel electrophoresis
[13] = biological target: T1, DNA topoisomerase 2-alpha; assay: Inhibition of human DNA topoisomerase 2-mediated Escherichia coli pUC8 DNA cleavage enhancement assessed as reduction of linear DNA production after 30 mins by agarose gel electrophoresis in presence of 10 fold excess genistein
[14] = biological target: T1, DNA topoisomerase 2-alpha; assay: Inhibition of human DNA topoisomerase 2-mediated Escherichia coli pUC8 DNA cleavage enhancement assessed as absence of linear DNA production at 100 ug/ml after 30 mins by agarose gel electrophoresis in presence of 100 ug/ml genistein
[15] = biological target: T1, DNA topoisomerase 2-alpha; assay: Enhancement of human DNA topoisomerase 2-mediated Escherichia coli pUC8 DNA cleavage assessed as production of linear DNA at 3 to 100 ug/ml after 30 mins by agarose gel electrophoresis
[16] = biological target: T1, DNA topoisomerase 2-alpha; assay: Inhibition of human DNA topoisomerase 2-mediated Escherichia coli pUC8 DNA cleavage enhancement assessed as absence of linear DNA production after 30 mins by agarose gel electrophoresis in presence of prunetin
[17] = organism: Bos taurus; assay: Inhibition of calf thymus DNA topoisomerase 1-mediated Escherichia coli pUC8 DNA cleavage enhancement assessed as absence of linear DNA production after 30 mins by agarose gel electrophoresis in presence of camptothecin

SMILES	Activity [1] [%]	Activity [2]	Activity [3]	IC50 [6] [µM]	other results
O=c1cc(-c2ccccc2)oc2ccc(O)cc12	< 50	inactive	inactive	–	–
O=c1c(O)c(-c2ccc(O)c(O)c2)oc2cc(O)cc(O)c12 [QUERCETIN]	60	–	–	22.8	Activity [4]: 11.5%; Activity [5]: inactive; Activity [7]: Active; Activity [8]: 2.2; Activity [9]: Active; IC50 [10]: 12.8 µg/mL (≈ 42.4 µM)
O=c1cc(-c2ccccc2)oc2cccc(O)c12	< 50	inactive	inactive	–	–
COc1cc(O)c2c(=O)c(-c3ccc(O)cc3)coc2c1	60	inactive	inactive	–	Activity [4]: 9.2%; Activity [5]: inactive; Activity [8]: 1.7
O=c1c(-c2ccc(O)c(O)c2)coc2cc(O)ccc12	–	inactive	inactive	–	–
O=c1c(O)c(-c2ccccc2)oc2ccccc12	–	inactive	inactive	–	–
O=c1c(O)c(-c2ccccc2)oc2cc(O)cc(O)c12	–	inactive	inactive	–	–
O=c1c(-c2ccc(O)cc2)coc2cc(O)cc(O)c12 [GENISTEIN]	–	inactive	–	111	Activity [4]: 16.2%; Activity [11]: Active; Activity [12]: Active; Activity [5]: inactive; Activity [8]: 3.1
O=c1cc(-c2ccccc2)oc2ccccc12	–	inactive	inactive	–	–
O=c1c(O)c(-c2ccc(O)cc2)oc2cc(O)cc(O)c12	60	inactive	inactive	–	Activity [4]: 8.3%; Activity [5]: inactive; Activity [8]: 1.6
O=c1cc(-c2ccccc2)oc2cc(O)ccc12	–	inactive	inactive	–	–
C[C@@H]1O[C@@H](OC[C@H]2O[C@@H](Oc3c(-c4ccc(O)c(O)c4)oc4cc(O)cc(O)c4c3=O)[C@H](O)[C@@H](O)[C@@H]2O)[C@H](O)[C@H](O)[C@H]1O	–	inactive	inactive	–	–
O=c1c(-c2ccc(O)cc2)coc2cc(O)ccc12	–	inactive	inactive	–	–
O=c1c(O)c(-c2ccc(O)cc2O)oc2cc(O)cc(O)c12 [MORIN]	< 50	–	–	135	IC50 [10]: 42.1 µg/mL (≈ 139 µM)
O=c1c(O)c(-c2cc(O)c(O)c(O)c2)oc2cc(O)cc(O)c12 [MYRICETIN]	–	–	–	–	Activity [13]: inactive; Activity [14]: Active; Activity [15]: inactive; Activity [16]: Active; Activity [17]: inactive; IC50 [10]: 11.9 µg/mL (≈ 37.4 µM)
O=c1c(O)c(-c2ccc(O)c(O)c2)oc2cc(O)ccc12 [FISETIN]	< 50	–	–	28.6	IC50 [10]: 20.6 µg/mL (≈ 72 µM)
O=c1c(-c2ccc(O)cc2)coc2cc(O)c(O)cc12	–	inactive	–	162	–
O=C(CCc1ccc(O)cc1)c1c(O)cc(O)cc1O [PHLORETIN]	–	inactive	–	168	–
O=c1cc(-c2ccc(O)cc2)oc2cc(O)cc(O)c12	60	inactive	inactive	–	Activity [4]: 8.7%; Activity [5]: inactive; Activity [8]: 1.6
Oc1cc(O)c2c(c1)O[C@H](c1ccc(O)c(O)c1)[C@@H](O)C2	–	inactive	inactive	–	–
